Reference: US20110229438A1, “METHOD OF INHIBITING HEPATITUS C VIRUS BY COMBINATION OF A 5,6-DIHYDRO-1H-PYRIDIN-2-ONE AND ONE OR MORE ADDITIONAL ANTIVIRAL COMPOUNDS” (priority 2008, published 2011)
Read-outs that look alike come from different tables or passages of the source.

System: HCV Huh-luc/neo-ET cells (HCV replicon)
Experiment: Luciferase-based HCV replicon assay, single agents and combinations
Format: cell-based, hepatitis C virus
Conditions: for increase of potency in the presence of Compound 2: Compound 2 at concentrations readily achieved clinically, FIGS. 2b, 3b, Table 2
Description: The cell culture component of the assay is performed essentially as described by Bartenschlager et al., Hepatology, 2002, 35, 694-703, wherein exponentially growing HCV Huh-luc/neo-ET cells are seeded at 6×10^3 cells/well in 96 well assay plate. 24 hours later the cells are treated with various concentrations of compound or combination of compounds in triplicate using both fixed ratios and checkerboard matrices of test agents and cultured for 72 hours. The luciferase activity in the wells is determined using Bright-Glo reagent (Promega, Madison, Wis.) with a luminometer (Wallac 1420 Multilabel HTS Counter Victor 2). The background control is replicon cells treated with 100 nM BILN-2061, an inhibitor of the HCV protease. % Inhibition is determined for each compound concentration or combination of compounds in relation to the negative (no compound) control to calculate the EC50. In the case of ANA773, conditioned media from human PBMCs from multiple donors is pooled after treatment with 100 μM of the active of ANA773 for 24 hours.
Compound 2 was evaluated in combination with Interferon α-2a, Telaprevir (HCV NS3/4 protease inhibitor, also known as VX-950), PSI-6130 the active agent of R7128 (HCV NS5B nucleoside inhibitor), and ANA773 (TLR7 agonist). The 50% inhibitory concentration (EC50) of each compound or combination of compounds is determined independently to determine the range of concentrations used to characterize the interaction of two agents in inhibiting the HCV replicon. […] The ratio of the two compounds tested either remained fixed or is varied across the dosing range to explore the greatest combination surface.
The combination data is analyzed using CalcuSyn (Biosoft, Ferguson, Mo.), a computer program based on the method of Chou and Talalay, J. Biol. Chem., 1977, 252, 6438-6442. Combination index (CI) values for each experimental combination are calculated at the EC50, EC75 and EC90 levels. CI values of <1, 1, and >1 indicate synergy, an additive effect, and antagonism, respectively.

SMILES	increase of potency in the presence of Compound 2	EC90 (Hepatitis C virus, Huh-luc/neo-ET, Compound 2 at 0 ng/mL (agent alone)) [µM]	EC90 (Hepatitis C virus, Huh-luc/neo-ET, in presence of fixed Compound 2 at 6 ng/mL) [µM]	EC90 (Hepatitis C virus, Huh-luc/neo-ET, in presence of fixed Compound 2 at 17 ng/mL) [µM]	EC90 (Hepatitis C virus, Huh-luc/neo-ET, in presence of fixed Compound 2 at 170 ng/mL) [µM]	EC90 (Compound 2 at 0 ng/mL (agent alone), read-out: EC90) [µM]	EC90 (in presence of fixed Compound 2 at 6 ng/mL, read-out: EC90) [µM]	EC90 (in presence of fixed Compound 2 at 17 ng/mL, read-out: EC90) [µM]
CCC[C@H](NC(=O)[C@@H]1[C@H]2CCC[C@H]2CN1C(=O)[C@@H](NC(=O)[C@@H](NC(=O)c1cnccn1)C1CCCCC1)C(C)(C)C)C(=O)C(=O)NC1CC1 [Telaprevir]	2-3 fold	2.8	2.4	1.9	1.3			
C[C@@]1(F)[C@H](O)[C@@H](CO)O[C@H]1n1ccc(N)nc1=O [PSI-6130]	4-5 fold					11.6	6	2.4
